Results published in publication PMC9653409, “Generative deep learning enables the discovery of a potent and selective RIPK1 inhibitor” (Nature Communications, 2022).
Where two headings read alike, the source gives them in different places.

Columns and labels:
Assay in all cases: Kinase inhibitory activity profiling of RI-962@10 µM (406 kinases, Eurofins)
Format in all cases: biochemical
[1] = target: panel of human kinases (kinase named in endpoint) (Homo sapiens, UniProt Q06187); details: 10 µM; read-out: Activity (%), BTK(h)
Method in brief: (§1)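 Radiometric filter-binding kinase assays: enzyme preincubated 15 min with compound in 8 mM MOPS pH 7.0, 0.2 mM EDTA, 250 μM peptide substrate, 10 mM magnesium acetate, 10 μM [γ-33P]-ATP. Reaction started with Mg/ATP, run 40 min at room temperature, stopped with phosphoric acid; 33P incorporation read by scintillation counting. Other kinases by similar protocols.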

[2] = target: panel of human kinases (kinase named in endpoint) (Homo sapiens, UniProt Q12851); details: 10 µM; read-out: Activity (%), GCK(h)
Method in brief: as §1

[3] = target: panel of human kinases (kinase named in endpoint) (Homo sapiens, UniProt P51451); details: 10 µM; read-out: Activity (%), Blk(h)
Method in brief: as §1

[4] = target: panel of human kinases (kinase named in endpoint) (Homo sapiens, UniProt Q13976); details: 10 µM; read-out: Activity (%), PKG1α(h)
Method in brief: as §1

[5] = target: panel of human kinases (kinase named in endpoint) (Homo sapiens, UniProt P31751); details: 10 µM; read-out: Activity (%), PKBβ(h)
Chain of panel of human kinases (kinase named in endpoint) (Homo sapiens, UniProt P31751) (P31751 whole entry): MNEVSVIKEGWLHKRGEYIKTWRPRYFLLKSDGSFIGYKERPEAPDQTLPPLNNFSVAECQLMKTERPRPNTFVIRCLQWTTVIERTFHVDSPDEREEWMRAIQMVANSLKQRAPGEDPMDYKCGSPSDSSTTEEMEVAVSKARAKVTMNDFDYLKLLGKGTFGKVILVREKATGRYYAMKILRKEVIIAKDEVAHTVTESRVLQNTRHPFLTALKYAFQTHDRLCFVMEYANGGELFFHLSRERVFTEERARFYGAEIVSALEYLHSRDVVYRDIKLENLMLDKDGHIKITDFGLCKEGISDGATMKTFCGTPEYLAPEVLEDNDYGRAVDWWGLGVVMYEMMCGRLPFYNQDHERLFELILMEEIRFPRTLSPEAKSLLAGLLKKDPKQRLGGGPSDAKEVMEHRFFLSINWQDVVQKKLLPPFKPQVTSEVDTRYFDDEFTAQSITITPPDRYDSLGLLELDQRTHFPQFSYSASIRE
Method in brief: as §1

[6] = target: panel of human kinases (kinase named in endpoint) (Homo sapiens, UniProt O94768); details: 10 µM; read-out: Activity (%), DRAK2(h)
Method in brief: as §1

[7] = target: panel of human kinases (kinase named in endpoint) (Homo sapiens, UniProt P22455); details: 10 µM; read-out: Activity (%), FGFR4(h)
Method in brief: as §1

[8] = target: panel of human kinases (kinase named in endpoint) (Homo sapiens, UniProt Q96SB4); details: 10 µM; read-out: Activity (%), SRPK1(h)
Method in brief: as §1

[9] = target: panel of human kinases (kinase named in endpoint) (Homo sapiens, UniProt Q13554); details: 10 µM; read-out: Activity (%), CaMKIIβ(h)
Method in brief: as §1

[10] = target: panel of human kinases (kinase named in endpoint) (Homo sapiens, UniProt Q16512); details: 10 µM; read-out: Activity (%), PRK1(h)
Method in brief: as §1

[11] = target: panel of human kinases (kinase named in endpoint) (Homo sapiens, UniProt P00519, Q252H); details: 10 µM; read-out: Activity (%), Abl (Q252H) (h)
Method in brief: as §1

[12] = target: panel of human kinases (kinase named in endpoint) (Homo sapiens, UniProt P42345); details: 10 µM
Method in brief: as §1

[13] = target: panel of human kinases (kinase named in endpoint) (Homo sapiens, UniProt Q96PY6); details: 10 µM; read-out: Activity (%), NEK1(h)
Chain of panel of human kinases (kinase named in endpoint) (Homo sapiens, UniProt Q96PY6) (Q96PY6 whole entry): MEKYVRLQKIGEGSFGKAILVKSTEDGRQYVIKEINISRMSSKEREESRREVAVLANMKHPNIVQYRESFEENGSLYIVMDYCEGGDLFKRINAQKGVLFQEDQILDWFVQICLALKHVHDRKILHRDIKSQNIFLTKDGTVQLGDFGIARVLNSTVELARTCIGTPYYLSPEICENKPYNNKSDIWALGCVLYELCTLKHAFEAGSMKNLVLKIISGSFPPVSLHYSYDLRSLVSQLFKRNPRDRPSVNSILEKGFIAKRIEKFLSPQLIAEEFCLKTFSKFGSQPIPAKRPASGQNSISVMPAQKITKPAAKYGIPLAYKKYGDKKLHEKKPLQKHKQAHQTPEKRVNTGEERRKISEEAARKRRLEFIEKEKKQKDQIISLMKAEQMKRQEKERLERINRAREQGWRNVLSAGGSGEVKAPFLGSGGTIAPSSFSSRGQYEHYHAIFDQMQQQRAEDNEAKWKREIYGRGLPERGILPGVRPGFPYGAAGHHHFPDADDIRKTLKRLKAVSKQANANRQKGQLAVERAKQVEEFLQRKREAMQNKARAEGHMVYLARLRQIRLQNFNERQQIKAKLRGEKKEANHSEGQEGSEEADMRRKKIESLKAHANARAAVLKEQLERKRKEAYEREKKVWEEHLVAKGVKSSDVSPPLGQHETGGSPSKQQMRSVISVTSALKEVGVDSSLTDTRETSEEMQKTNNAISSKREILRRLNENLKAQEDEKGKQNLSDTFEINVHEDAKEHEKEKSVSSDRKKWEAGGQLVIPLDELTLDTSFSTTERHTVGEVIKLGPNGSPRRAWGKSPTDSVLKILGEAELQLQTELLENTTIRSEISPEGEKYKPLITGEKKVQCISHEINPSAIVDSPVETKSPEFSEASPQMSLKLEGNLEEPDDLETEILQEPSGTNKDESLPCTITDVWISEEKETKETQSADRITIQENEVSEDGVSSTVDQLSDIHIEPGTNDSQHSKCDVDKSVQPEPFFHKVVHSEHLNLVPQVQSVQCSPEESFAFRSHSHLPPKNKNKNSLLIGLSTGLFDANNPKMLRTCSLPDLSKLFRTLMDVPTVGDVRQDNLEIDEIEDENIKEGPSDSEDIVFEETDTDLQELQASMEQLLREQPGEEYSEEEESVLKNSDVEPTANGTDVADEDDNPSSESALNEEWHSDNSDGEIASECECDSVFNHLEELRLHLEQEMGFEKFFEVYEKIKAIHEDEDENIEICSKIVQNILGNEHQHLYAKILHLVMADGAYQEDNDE
Method in brief: as §1

[14] = target: panel of human kinases (kinase named in endpoint) (Homo sapiens, UniProt Q9NRH2); details: 10 µM; read-out: Activity (%), SNRK(h)
Method in brief: as §1

[15] = target: panel of human kinases (kinase named in endpoint) (Homo sapiens, UniProt Q99759); details: 10 µM; read-out: Activity (%), MEKK3(h)
Method in brief: as §1

[16] = target: panel of human kinases (kinase named in endpoint) (Mus musculus, UniProt Q4JIM5); details: 10 µM; read-out: Activity (%), Arg(m)
Method in brief: as §1

[17] = target: panel of human kinases (kinase named in endpoint) (Homo sapiens, UniProt P17948); details: 10 µM; read-out: Activity (%), Flt1(h)
Method in brief: as §1

[18] = target: panel of human kinases (kinase named in endpoint) (Homo sapiens, UniProt Q02763, Y897S); details: 10 µM; read-out: Activity (%), Tie2(Y897S)(h)
Method in brief: as §1

[19] = target: panel of human kinases (kinase named in endpoint) (Homo sapiens, UniProt O96013); details: 10 µM; read-out: Activity (%), PAK4(h)
Chain of panel of human kinases (kinase named in endpoint) (Homo sapiens, UniProt O96013) (O96013 whole entry): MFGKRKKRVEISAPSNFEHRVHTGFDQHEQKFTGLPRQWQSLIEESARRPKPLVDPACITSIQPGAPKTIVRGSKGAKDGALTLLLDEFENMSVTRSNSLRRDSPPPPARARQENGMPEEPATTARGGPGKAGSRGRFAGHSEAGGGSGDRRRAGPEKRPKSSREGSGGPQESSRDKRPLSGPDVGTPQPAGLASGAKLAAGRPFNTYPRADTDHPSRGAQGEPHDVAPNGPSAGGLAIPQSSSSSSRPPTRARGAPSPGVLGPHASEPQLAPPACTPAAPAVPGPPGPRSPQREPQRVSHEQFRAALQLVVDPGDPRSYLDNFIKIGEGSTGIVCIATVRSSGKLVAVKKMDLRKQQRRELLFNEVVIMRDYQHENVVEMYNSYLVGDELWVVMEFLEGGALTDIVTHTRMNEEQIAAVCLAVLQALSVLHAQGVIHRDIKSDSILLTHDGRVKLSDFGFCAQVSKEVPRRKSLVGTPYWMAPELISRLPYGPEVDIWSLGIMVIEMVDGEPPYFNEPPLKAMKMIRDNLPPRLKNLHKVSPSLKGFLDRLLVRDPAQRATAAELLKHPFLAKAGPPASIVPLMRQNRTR
Method in brief: as §1

[20] = target: panel of human kinases (kinase named in endpoint) (Homo sapiens, UniProt Q9HBY8); details: 10 µM; read-out: Activity (%), SGK2(h)
Method in brief: as §1

[21] = target: panel of human kinases (kinase named in endpoint) (Homo sapiens, UniProt P54646); details: 10 µM; read-out: Activity (%), AMPKα2(h)
Chain of panel of human kinases (kinase named in endpoint) (Homo sapiens, UniProt P54646) (P54646 whole entry): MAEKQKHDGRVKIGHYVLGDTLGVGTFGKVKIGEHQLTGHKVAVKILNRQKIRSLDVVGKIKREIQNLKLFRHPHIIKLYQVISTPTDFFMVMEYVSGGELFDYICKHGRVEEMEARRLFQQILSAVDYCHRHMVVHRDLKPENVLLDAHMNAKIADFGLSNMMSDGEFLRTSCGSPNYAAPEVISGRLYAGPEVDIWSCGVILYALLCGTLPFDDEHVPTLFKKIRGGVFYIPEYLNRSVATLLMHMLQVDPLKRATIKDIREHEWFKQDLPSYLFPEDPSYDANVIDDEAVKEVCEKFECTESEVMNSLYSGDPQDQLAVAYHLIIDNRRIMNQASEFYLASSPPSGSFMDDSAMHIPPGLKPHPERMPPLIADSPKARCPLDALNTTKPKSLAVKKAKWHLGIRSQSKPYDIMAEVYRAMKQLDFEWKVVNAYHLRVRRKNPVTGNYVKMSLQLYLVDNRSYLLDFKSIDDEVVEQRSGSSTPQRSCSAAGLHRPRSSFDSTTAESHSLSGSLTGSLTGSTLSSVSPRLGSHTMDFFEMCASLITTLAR
Method in brief: as §1

[22] = target: panel of human kinases (kinase named in endpoint) (Homo sapiens, UniProt Q8TDC3); details: 10 µM; read-out: Activity (%), BrSK1(h)
Chain of panel of human kinases (kinase named in endpoint) (Homo sapiens, UniProt Q8TDC3) (Q8TDC3 whole entry): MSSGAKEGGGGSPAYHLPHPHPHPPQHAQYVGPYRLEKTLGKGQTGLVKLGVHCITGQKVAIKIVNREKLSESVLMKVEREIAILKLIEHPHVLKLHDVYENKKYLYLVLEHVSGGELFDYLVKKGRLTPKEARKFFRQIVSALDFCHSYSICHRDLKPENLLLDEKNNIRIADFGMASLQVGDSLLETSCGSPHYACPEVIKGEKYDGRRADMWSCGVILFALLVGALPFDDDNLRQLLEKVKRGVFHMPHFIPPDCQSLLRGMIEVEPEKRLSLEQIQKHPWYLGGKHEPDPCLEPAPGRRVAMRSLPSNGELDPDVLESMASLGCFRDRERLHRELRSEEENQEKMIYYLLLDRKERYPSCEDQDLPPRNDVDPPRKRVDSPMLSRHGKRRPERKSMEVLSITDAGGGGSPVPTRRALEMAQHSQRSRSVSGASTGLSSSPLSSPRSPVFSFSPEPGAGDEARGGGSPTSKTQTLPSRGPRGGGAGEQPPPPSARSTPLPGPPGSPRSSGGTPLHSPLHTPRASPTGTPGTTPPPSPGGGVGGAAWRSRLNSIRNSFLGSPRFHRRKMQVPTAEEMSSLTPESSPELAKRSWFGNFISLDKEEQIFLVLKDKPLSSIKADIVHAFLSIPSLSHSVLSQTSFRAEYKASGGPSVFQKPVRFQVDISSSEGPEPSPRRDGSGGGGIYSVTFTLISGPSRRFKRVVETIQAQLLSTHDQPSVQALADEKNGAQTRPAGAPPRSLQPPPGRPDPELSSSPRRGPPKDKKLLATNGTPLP
Method in brief: as §1

[23] = target: panel of human kinases (kinase named in endpoint) (Homo sapiens, UniProt Q13464); details: 10 µM; read-out: Activity (%), ROCK-I(h)
Method in brief: as §1

[24] = target: panel of human kinases (kinase named in endpoint) (Homo sapiens, UniProt Q9H093); details: 10 µM; read-out: Activity (%), NUAK2(h)
Method in brief: as §1

[25] = target: panel of human kinases (kinase named in endpoint) (Homo sapiens, UniProt P42336, E542K); details: 10 µM; read-out: Activity (%), PI3(p110a(E542K)/p85a)
Chain of panel of human kinases (kinase named in endpoint) (Homo sapiens, UniProt P42336, E542K) (P42336 whole entry E542K): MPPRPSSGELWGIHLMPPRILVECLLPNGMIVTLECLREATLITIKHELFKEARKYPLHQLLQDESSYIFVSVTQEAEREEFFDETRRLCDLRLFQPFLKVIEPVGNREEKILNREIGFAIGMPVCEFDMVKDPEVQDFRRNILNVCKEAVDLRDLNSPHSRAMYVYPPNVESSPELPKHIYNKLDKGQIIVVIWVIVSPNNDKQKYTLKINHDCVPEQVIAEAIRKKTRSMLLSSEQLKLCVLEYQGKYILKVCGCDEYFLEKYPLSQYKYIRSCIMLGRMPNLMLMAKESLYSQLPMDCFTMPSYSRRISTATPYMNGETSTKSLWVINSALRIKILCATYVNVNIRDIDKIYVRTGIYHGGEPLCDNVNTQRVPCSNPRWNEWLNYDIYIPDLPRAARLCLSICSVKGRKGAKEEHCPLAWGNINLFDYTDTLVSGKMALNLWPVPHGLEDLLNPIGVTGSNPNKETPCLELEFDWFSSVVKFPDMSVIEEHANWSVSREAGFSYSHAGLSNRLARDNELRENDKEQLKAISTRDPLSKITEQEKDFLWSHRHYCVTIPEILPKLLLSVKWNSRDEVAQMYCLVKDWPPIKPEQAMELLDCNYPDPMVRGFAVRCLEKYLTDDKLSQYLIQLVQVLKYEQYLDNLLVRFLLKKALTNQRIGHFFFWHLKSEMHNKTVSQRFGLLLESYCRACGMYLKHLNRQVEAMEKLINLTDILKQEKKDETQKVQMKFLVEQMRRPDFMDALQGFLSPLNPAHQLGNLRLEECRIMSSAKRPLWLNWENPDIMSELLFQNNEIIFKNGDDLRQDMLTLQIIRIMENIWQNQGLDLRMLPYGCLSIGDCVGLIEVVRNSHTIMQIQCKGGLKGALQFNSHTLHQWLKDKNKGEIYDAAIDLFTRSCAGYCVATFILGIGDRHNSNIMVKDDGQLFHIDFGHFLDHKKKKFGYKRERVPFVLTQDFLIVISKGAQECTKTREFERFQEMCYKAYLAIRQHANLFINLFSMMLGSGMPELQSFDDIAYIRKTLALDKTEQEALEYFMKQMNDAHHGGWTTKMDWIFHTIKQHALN
Method in brief: as §1

CC(C)C(=O)Nc1nc2cc(-c3ccc4c(c3)c(C(=O)NC(C)c3ccccc3)cn4C)ccn2n1 (centres unmarked) [RI-962]
activity at 10 µM [1]: 92%
activity at 10 µM [2]: 83%
activity at 10 µM [3]: 96%
activity at 10 µM [4]: 101%
activity at 10 µM [5]: 92%
activity at 10 µM [6]: 106%
activity at 10 µM [7]: 85%
activity at 10 µM [8]: 102%
activity at 10 µM [9]: 109%
activity at 10 µM [10]: 109%
activity at 10 µM [11]: 135%
activity at 10 µM ([12]; read-out: Activity (%), mTOR(h)): 87%
activity at 10 µM ([12]; read-out: Activity (%), mTOR/FKBP12(h)): 98%
activity at 10 µM [13]: 93%
activity at 10 µM [14]: 121%
activity at 10 µM [15]: 93%
activity at 10 µM [16]: 90%
activity at 10 µM [17]: 85%
activity at 10 µM [18]: 69%
activity at 10 µM [19]: 92%
activity at 10 µM [20]: 120%
activity at 10 µM [21]: 89%
activity at 10 µM [22]: 100%
activity at 10 µM [23]: 99%
activity at 10 µM [24]: 86%
activity at 10 µM [25]: 97%
